Test results from patent US20220056043A1, “NITROGEN-CONTAINING FUSED CYCLIC COMPOUND, PREPARATION METHOD THEREFOR AND USE THEREOF” (SICHUAN KELUN-BIOTECH BIOPHARMACEUTICAL CO., LTD., priority 2019, published 2022).

Biological target: T1, hTLR8 (Homo sapiens, UniProt Q9NR97)
T1 construct: host or cells: HEK-Blue hTLR8 cells
T1 sequence (Q9NR97 27-1041): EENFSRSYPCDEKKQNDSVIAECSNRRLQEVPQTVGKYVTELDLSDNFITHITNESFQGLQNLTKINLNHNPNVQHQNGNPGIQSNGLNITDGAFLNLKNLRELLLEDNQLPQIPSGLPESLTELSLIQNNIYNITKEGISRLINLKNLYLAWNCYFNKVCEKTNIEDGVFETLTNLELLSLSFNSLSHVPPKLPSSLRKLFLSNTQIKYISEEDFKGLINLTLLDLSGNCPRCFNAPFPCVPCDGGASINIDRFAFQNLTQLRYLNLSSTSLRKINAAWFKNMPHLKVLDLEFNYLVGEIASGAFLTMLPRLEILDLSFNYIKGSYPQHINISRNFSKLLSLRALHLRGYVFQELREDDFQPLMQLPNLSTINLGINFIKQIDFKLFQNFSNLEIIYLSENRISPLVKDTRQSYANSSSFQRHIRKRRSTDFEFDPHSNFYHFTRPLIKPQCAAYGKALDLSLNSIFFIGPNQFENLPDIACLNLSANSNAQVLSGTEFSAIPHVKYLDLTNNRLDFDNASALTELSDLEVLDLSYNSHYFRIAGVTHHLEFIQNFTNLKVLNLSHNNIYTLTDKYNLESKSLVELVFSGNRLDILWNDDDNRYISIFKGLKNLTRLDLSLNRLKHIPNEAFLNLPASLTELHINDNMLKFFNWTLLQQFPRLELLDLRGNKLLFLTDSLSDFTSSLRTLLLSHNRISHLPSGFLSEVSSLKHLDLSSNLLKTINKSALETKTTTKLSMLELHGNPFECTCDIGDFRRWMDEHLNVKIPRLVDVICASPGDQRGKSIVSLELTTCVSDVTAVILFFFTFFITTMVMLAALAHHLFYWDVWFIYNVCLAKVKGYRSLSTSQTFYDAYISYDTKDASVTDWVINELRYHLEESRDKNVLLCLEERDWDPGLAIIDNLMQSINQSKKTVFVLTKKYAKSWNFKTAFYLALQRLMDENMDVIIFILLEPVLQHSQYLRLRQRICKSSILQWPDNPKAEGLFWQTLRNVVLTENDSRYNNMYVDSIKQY
Assay: Agonistic effect on hTLR8, HEK-Blue hTLR8 cells, alkaline phosphatase secretion
Assay type: cell-based
Conditions: 16 hours
In short: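 HEK-Blue hTLR8 reporter cells were treated with compound (diluted from 10 mM DMSO stock) for 16 h at 37 °C in DMEM/10% FBS. Secreted alkaline phosphatase in supernatant was detected with QUANTI-Blue after 3 h at 37 °C, read at OD620. EC50 came from a four-parameter variable-slope fit.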

Compound	EC50
CC(C)(O)CNc1cc(N)nc2cc(-c3ccn[nH]3)sc12 [Compound 28, (1-(5-amino-2-(1H-pyrazol-5-yl)thieno[3,2-b]pyridin-7-yl)amino)-2-methyl-2-propanol]	> 100 µM
C[C@@H](O)CNc1cc(N)nc2cc(-c3ccn[nH]3)sc12 [Compound 29]	> 100 µM
Nc1cc(N[C@@H]2CC[C@@H](O)C2)c2sc(-c3ccn[nH]3)cc2n1 [Compound 30, (1R,3R)-3-((5-amino-2-(1H-pyrazol-5-yl)thieno[3,2-b]pyridin-7-yl)amino)cyclopentanol]	> 100 µM
Nc1cc(NC(CCO)c2ccccc2)c2sc(-c3ccn[nH]3)cc2n1 (centres unmarked) [Compound 123, 3-((5-amino-2-(1H-pyrazol-5-yl)thieno[3,2-b]pyridin-7-yl)amino)-3-phenyl-1-propanol]	> 100 µM
C[C@@H]1CN(CCNc2cc(N)nc3cc(-c4ccn[nH]4)sc23)C[C@@H](C)O1 [Compound 124, N^7-(2-((2R,6R)-2,6-dimethylmorpholino)ethyl)-2-(1H-pyrazol-5-yl)thieno[3,2-b]pyridine-5,7-diamine]	> 100 µM
C[C@@H](CCO)Nc1cc(N)nc2cc(-c3ccn[nH]3)sc12 [Compound 125, (S)-3-((5-amino-2-(1H-pyrazol-5-yl)thieno[3,2-b]pyridin-7-yl)amino)butanol]	> 100 µM
Nc1cc(NCC2CCC2)c2sc(-c3ccn[nH]3)cc2n1 [Compound 126, N^7-(cyclobutylmethyl)-2-(1H-pyrazol-5-yl)thieno[3,2-b]pyridine-5,7-diamine]	> 100 µM
CN(CCCO)c1cc(N)nc2cc(-c3ccn[nH]3)sc12 [Compound 127, 3-((5-amino-2-(1H-pyrazol-5-yl)thieno[3,2-b]pyridin-7-yl)(methyl)amino)-1-propanol]	> 100 µM
C[C@H]1CC[C@H](Nc2cc(N)nc3cc(-c4ccn[nH]4)sc23)CC1 [Compound 128, N^7-((1R,4R)-4-methylcyclohexyl)-2-(1H-pyrazol-5-yl)thieno[3,2-b]pyridine-5,7-diamine]	> 100 µM
C[C@]1(O)C[C@@H](Nc2cc(N)nc3cc(-c4ccn[nH]4)sc23)C1 [Compound 129, (1s,3s)-3-((5-amino-2-(1H-pyrazol-5-yl)thieno[3,2-b]pyridin-7-yl)amino)-1-methylcyclobutanol]	> 100 µM
C[C@H](Nc1cc(N)nc2cc(-c3ccn[nH]3)sc12)c1cccc(C(F)(F)F)c1 [Compound 131, (S)-2-(1H-pyrazol-5-yl)-N^7-(1-(3-(trifluoromethyl)phenyl)ethyl)thieno[3,2-b]pyridine-5,7-diamine]	> 100 µM
CC[C@@H](CO)Nc1cc(N)nc2cc(-c3ccn[nH]3)sc12 [Compound 132, (S)-2-((5-amino-2-(1H-pyrazol-5-yl)thieno[3,2-b]pyridin-7-yl)amino)-1-butanol]	> 100 µM
COC[C@@H](C)Nc1cc(N)nc2cc(-c3ccn[nH]3)sc12 [Compound 133, (R)—N^7-(1-methoxyprop-2-yl)-2-(1H-pyrazol-5-yl)thieno[3,2-b]pyridine-5,7-diamine]	> 100 µM
Cc1cccnc1CNc1cc(N)nc2cc(-c3ccn[nH]3)sc12 [Compound 134, N^7-((3-methylpyridin-2-yl)methyl)-2-(1H-pyrazol-5-yl)thieno[3,2-b]pyridine-5,7-diamine]	> 100 µM
Nc1cc(NCCN2CCCC2=O)c2sc(-c3ccn[nH]3)cc2n1 [Compound 135, 1-(2-((5-amino-2-(1H-pyrazol-5-yl)thieno[3,2-b]pyridin-7-yl)amino)ethyl)pyrrolidin-2-one]	> 100 µM
Nc1cc(NCC(CO)CO)c2sc(-c3ccn[nH]3)cc2n1 [Compound 136]	> 100 µM

Compound	EC50
CNC(=O)CNc1cc(N)nc2cc(-c3ccn[nH]3)sc12 [Compound 137, 2-((5-amino-2-(1H-pyrazol-5-yl)thieno[3,2-b]pyridin-7-yl)amino)-N-methylacetamide]	> 100 µM
Nc1cc(NCC(=O)NC2CC2)c2sc(-c3ccn[nH]3)cc2n1 [Compound 138, 2-((5-amino-2-(1H-pyrazol-5-yl)thieno[3,2-b]pyridin-7-yl)amino)-N-cyclopropylacetamide]	> 100 µM
CN(CCO)c1cc(N)nc2cc(-c3ccn[nH]3)sc12 [Compound 139, 2-((5-amino-2-(1H-pyrazol-5-yl)thieno[3,2-b]pyridin-7-yl)(methyl)amino)ethanol]	> 100 µM
CCN(CCNc1cc(N)nc2cc(-c3ccn[nH]3)sc12)C(=O)Cc1cccc(C)c1 [Compound 140, N-(2-((5-amino-2-(1H-pyrazol-5-yl)thieno[3,2-b]pyridin-7-yl)amino)ethyl)-N-ethyl-2-(m-tolyl)acetamide]	> 100 µM
CC(C)CNc1cc(N)nc2cc(-c3ccn[nH]3)sc12 [Compound 141, N^7-isobutyl-2-(1H-pyrazol-5-yl)thieno[3,2-b]pyridin-5,7-diamine]	> 100 µM
Nc1cc(N[C@H]2[C@@H]3CNC[C@@H]32)c2sc(-c3ccn[nH]3)cc2n1 [Compound 142, N^7-((1R,5S,6S)-3-azabicyclo[3.1.0]hex-6-yl)-2-(1H-pyrazol-5-yl)thieno[3,2-b]pyridin-5,7-diamine]	> 100 µM
Nc1cc(NC2CCC(F)(F)CC2)c2sc(-c3ccn[nH]3)cc2n1 [Compound 143, N^7-(4,4-difluorocyclohexyl)-2-(1H-pyrazol-5-yl)thieno[3,2-b]pyridin-5,7-diamine]	> 100 µM
CC(C)C[C@H](CO)Nc1cc(N)nc2cc(-c3ccn[nH]3)sc12 [Compound 144, (R)-2-((5-amino-2-(1H-pyrazol-5-yl)thieno[3,2-b]pyridin-7-yl)amino)-4-methyl-1-pentanol]	> 100 µM
CCC(=O)N(CC)CCNc1cc(N)nc2cc(-c3ccn[nH]3)sc12 [Compound 145, N-(2-((5-amino-2-(1H-pyrazol-5-yl)thieno[3,2-b]pyridin-7-yl)amino)ethyl)-N-ethylpropionamide]	> 100 µM
CCN(CCNc1cc(N)nc2cc(-c3ccn[nH]3)sc12)C(=O)C1CC1 [Compound 146, N-(2-((5-amino-2-(1H-pyrazol-5-yl)thieno[3,2-b]pyridin-7-yl)amino)ethyl)-N-ethylcyclopropyl formamide]	> 100 µM
Nc1cc(N[C@H]2CC[C@H](O)CC2)c2sc(-c3ccn[nH]3)cc2n1 [Compound 147, (1R,4R)-4-((5-amino-2-(1H-pyrazol-5-yl)thieno[3,2-b]pyridin-7-yl)amino)cyclohexanol]	> 100 µM
C[C@@H]1CN(c2cc(N)nc3cc(-c4ccn[nH]4)sc23)C[C@@H](C)O1 [Compound 148, 7-((2R,6R)-2,6-dimethylmorpholino)-2-(1H-pyrazol-5-yl)thieno[3,2-b]pyridine-5-amine]	> 100 µM
Cc1noc(C)c1CNc1cc(N)nc2cc(-c3ccn[nH]3)sc12 [Compound 149, N^7-((3,5-dimethylisoxazol-4-yl)methyl)-2-(1H-pyrazol-5-yl)thieno[3,2-b]pyridine-5,7-diamine]	> 100 µM
Nc1cc(NCCCN2CCCC2=O)c2sc(-c3ccn[nH]3)cc2n1 [Compound 150]	> 100 µM
Cc1c(-c2cc[nH]n2)sc2c(NCC(C)(C)CO)cc(N)nc12 [Compound 151]	> 100 µM
COCCNc1cc(N)nc2c(C)c(-c3cc[nH]n3)sc12 [Compound 152]	> 100 µM
